{
  "source": "patent US8273768B2",
  "about": "“Iso CA-4 and analogues thereof as potent cytotoxic agents inhibiting tubuline polymerization” (Centre National de la Recherche Scientifique (CNRS), priority 2007, dated 2012)",
  "key": {"[1]": {"system": "human endothelial cells (EAhy926)", "assay": "Formation of vascular tubes on Matrigel", "type": "cell-based", "details": "EAhy926, treatment of 3 hours, 10 nM", "protocol": "In order to know whether the compound (I-1) perturbs the spatial organization of endothelial cells in structures similar to vascular capillaries, human endothelial cells (EAhy926) were treated immediately after cultivation on Matrigel® or after 24 hours of cultivation, in order to allow them to form vascular tubes.\nIn order to evaluate the antivascular activity of the compound (I-1), the EAhy926 cells were cultivated in 96-well culture plates covered beforehand with an extract of extracellular matrix (Matrigel™, BD Biosciences, Le Pont-de-Claix, France) in which they spontaneously form capillary tubes.\nFirst of all, we measured the capacity of the compound (I-1) of inhibiting the formation of the capillary network. Matrigel™ is deposited in 96-well culture plates in an amount of 70 μL/well and left to incubate at 37° C. for 45 minutes in order to allow its polymerization. 15,000 cells suspended in 150 μL of culture medium are sown per well in each of the wells containing Matrigel™ in the absence or in the presence of different concentrations of the compound (I-1), with 3 wells per concentration. After 1 hour, 3 hours and 6 hours of incubation at 37° C., the cells are observed and photographed by means of an optical microscope of the TE2000 type (Nikon, France), equipped with a camera. […]"}, "[2]": {"molecular_target": "T1, purified tubulin from pig brains (Sus scrofa, UniProt P02550+P02554)", "T1 construct": "from pig brains, where it forms 20-25% of the soluble proteins; from tissue; host or cells: pig brain", "T1 sequence (P02554 whole entry)": "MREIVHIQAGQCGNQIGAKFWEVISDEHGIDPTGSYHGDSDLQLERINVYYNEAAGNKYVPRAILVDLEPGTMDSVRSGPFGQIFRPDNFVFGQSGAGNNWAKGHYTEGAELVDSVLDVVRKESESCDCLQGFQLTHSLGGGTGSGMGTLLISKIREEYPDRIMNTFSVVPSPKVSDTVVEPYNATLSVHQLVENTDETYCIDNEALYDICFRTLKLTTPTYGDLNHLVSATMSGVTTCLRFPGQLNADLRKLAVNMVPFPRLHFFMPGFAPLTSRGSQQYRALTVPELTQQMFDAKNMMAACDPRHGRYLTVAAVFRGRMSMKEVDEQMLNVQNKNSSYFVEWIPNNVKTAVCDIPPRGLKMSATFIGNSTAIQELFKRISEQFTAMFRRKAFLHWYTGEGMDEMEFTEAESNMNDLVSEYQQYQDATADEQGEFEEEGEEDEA", "T1 sequence (P02550 whole entry)": "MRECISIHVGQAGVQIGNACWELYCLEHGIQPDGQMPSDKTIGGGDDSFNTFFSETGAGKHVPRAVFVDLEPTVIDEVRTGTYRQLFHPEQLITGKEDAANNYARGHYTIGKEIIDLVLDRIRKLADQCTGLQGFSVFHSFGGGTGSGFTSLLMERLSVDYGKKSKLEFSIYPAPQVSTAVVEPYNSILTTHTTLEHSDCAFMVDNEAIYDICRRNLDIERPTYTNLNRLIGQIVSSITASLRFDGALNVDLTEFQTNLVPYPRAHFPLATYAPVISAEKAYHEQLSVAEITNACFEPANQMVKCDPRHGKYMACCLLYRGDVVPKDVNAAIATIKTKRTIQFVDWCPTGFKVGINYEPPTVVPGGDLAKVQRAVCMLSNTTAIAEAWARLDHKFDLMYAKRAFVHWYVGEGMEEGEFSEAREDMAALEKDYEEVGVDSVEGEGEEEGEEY", "assay": "Inhibition of polymerization of tubulin (turbidimetry)", "type": "biochemical", "details": "pig brain tubulin, turbidimetry at 350 nm", "protocol": "Tests relating to the inhibition of polymerization of tubulin were carried out on compounds which had the best cytotoxic activities. These tests were carried out on purified tubulin by the Shelanski method (Shelanski, M. C.; Gaskin, F.; Cantor, C. R. Proc. Natl. Acad. Sci. USA, 1973, 70, 765-768) from pig brains, where it forms 20-25% of the soluble proteins. Purification method is based on temperature-dependent assembling-disassembling cycles. Polymerization of tubulin was tracked with turbidimetry according to the Gaskin method (Gaskin, F.; Cantor, C. R.; Shelanski, M. L. J. Bio. Mol. 1974, 89, 737) at a wavelength of 350 nm. The different samples were dissolved in DMSO and incubated for 10 minutes at 37° C. and then for 5 minutes at 0° C.\nThe CA-4 compound and DMSO were taken as references.\nThe tests have shown for these compounds an activity inhibiting polymerization of tubulin similar to the one of the reference compound CA-4 (of the order of only one micromolar concentration to a few tens of micromolar concentrations)."}, "[3]": {"system": "K562 cells", "assay": "Study of apoptosis (caspase-3/7 activity)", "type": "cell-based, human", "details": "K562, 24 hours", "protocol": "(§1) In order to specify whether the compound (I-1) causes cell death by apoptosis, the intracellular enzymatic activity of caspases 3 and 7 was evaluated in cultures of K562, HCT116 and MDA-MB 231 cells exposed for 24 hours to the action of the compound (I-1).\n(§2) Apoptosis is measured by using the kit “Apo-one homogeneous caspase-3/7 assay” (Promega Co., WI, USA) by following the recommendations of the manufacturer. Briefly, the cells are sown in 96-well culture plates with 50,000 cells per well in 100 μL of culture medium. After 24 hours of incubation, the medium is replaced with 100 μL of culture medium containing different concentrations of the compound […] or 0.1% DMSO (negative control). After 24 hours of treatment, 100 μL of reagent containing the substrate of the caspase and the buffer of the reaction are added into each well. After 1 hour of incubation, the fluorescence emitted by the cell is measured at 527 nm with a microplate reader of the Victor type (Perkin-Elmer, USA)."}, "[4]": {"system": "MDA-MB 231 cells", "assay": "Study of apoptosis (caspase-3/7 activity)", "type": "cell-based, human", "details": "MDA-MB 231, 24 hours", "protocol": "as §1, §2"}, "[5]": {"system": "HCT116 cells", "assay": "Study of apoptosis (caspase-3/7 activity)", "type": "cell-based, human", "details": "HCT116, 24 hours", "protocol": "as §1, §2"}, "[6]": {"system": "HCT116", "assay": "Study of cytotoxicity (CellTiter-Blue, 72 hours)", "type": "cell-based", "details": "Homo sapiens, HCT-116; 72 hours of incubation; read-out: IC50 for different cell lines: HCT116", "protocol": "(§3) The biological activity of the compounds of the invention was studied in vitro on 7 human cancer cell lines with different tissue origins (HCT116: colorectal carcinoma; K562: chronic myeloid leukemia; B16-F10: melanoma; U87: glioblastoma; A549: lung cancer and MDA-MB 231 and MDA-MB 435: breast cancer). The cells selected for the study were incubated at 37° C. in the presence of one of the compounds added into the culture medium at different concentrations. The whole of the conducted experiments allowed determination of the toxicity level of the tested compound, its effect on the course of the cell cycle as well as its capacity of inducing cell death by apoptosis.\n(§4) The cancer cell lines originate from the American Type Culture Collection (Rockville, Md., USA) and were grown according to the recommendations of the supplier.\n(§5) The cells A549, U87, MDA-MB231, MDA-MB435 and B16F10 were grown in a culture medium “Dulbecco minimal essential medium” (DMEM) containing 4.5 g/L of glucose and supplemented with 10% fetal calf serum and 1% glutamine. The K562 and HCT116 were grown in an RPMI 1640 medium containing 10% fetal calf serum and 1% glutamine. All the cell lines were maintained in the culture at 37° C. in a humid atmosphere containing 5% of CO2. Cell viability was evaluated by using the reagent “CellTiter-Blue™” (Promega, Wis., USA) while observing the instructions of the manufacturer. The cells were sown in 96-well culture plates with 5000 cells per well in 50 μL of culture medium. After 24 hours of culture, the compounds of general formula (I) dissolved in DMSO were individually added into each of the wells in an amount of 50 μl per well. All the compounds were tested in triplicate for each defined concentration and each experiment was repeated three times. After 72 hours of incubation, 20 μL of resazurin were added in each well. After 2 hours of incubation, the emitted fluorescence was measured at 590 nm after excitation at 560 nm by means of a fluorescence reader of the Victor type (Perkin-Elmer, USA).\n(§6) The concentration of each of the compounds which induces the death of 50% of the cells (IC50) was determined after 72 hours of incubation. Certain compounds according to the invention have an IC50 of the order of one nanomolar concentration, therefore equivalent to CA-4 taken as a reference."}, "[7]": {"system": "K562", "assay": "Study of cytotoxicity (CellTiter-Blue, 72 hours)", "type": "cell-based", "details": "Homo sapiens, 72 hours of incubation, read-out: IC50 for different cell lines: K562", "protocol": "as §3, §4, §5, §6"}, "[8]": {"system": "MDA-MB 231", "assay": "Study of cytotoxicity (CellTiter-Blue, 72 hours)", "type": "cell-based", "details": "Homo sapiens, MDA-MB-231; 72 hours of incubation; read-out: IC50 for different cell lines: M231", "protocol": "as §3, §4, §5, §6"}},
  "data": [
    {"smiles": "C=C(c1ccc(OC)c(O)c1)c1cc(OC)c(OC)c(OC)c1", "note": "[(I-1)]", "values": [
      {"measurement": "Number of vascular tubes on Matrigel", "setting": "[1]", "value": "very significant decrease in the number of vascular tubes"},
      {"measurement": "IC50", "setting": "[2]", "value": 2200, "unit": "nM"},
      {"measurement": "Induction of apoptosis (caspases 3 and 7)", "setting": "[3]", "value": "strong induction of apoptosis"},
      {"measurement": "Induction of apoptosis (caspases 3 and 7)", "setting": "[4]", "value": "strong induction of apoptosis"},
      {"measurement": "Induction of apoptosis (caspases 3 and 7)", "setting": "[5]", "value": "strong induction of apoptosis"},
      {"measurement": "IC50", "setting": "[6]", "value": "2 to 4", "unit": "nM"},
      {"measurement": "IC50", "setting": "[7]", "value": 5, "unit": "nM"},
      {"measurement": "IC50", "setting": "[8]", "value": 4, "unit": "nM"}
    ]}
  ]
}
